Blank lines part the entries; values can stand above or below the molecule they belong to.
How the values were obtained:
DLD-1 cells = assay: Colony formation assay (14 days) in DLD-1 cells; conditions: for colony formation on co-treatment with dBET6: dBET6 0.1 μM plus the compound at 2 μM, 14-day period
MDR1 [1] = target: T1, MDR1 (Homo sapiens, UniProt P08183); assay: Rhodamine 123 efflux assay in degrader-resistant cells; type: cell-based; set-up: endogenous in cells; host or cells: A1847 parental, dBET6-R, Thal-R; SUM159 parental, MZ1-R; conditions: 2 μM
T1 sequence (P08183 whole entry): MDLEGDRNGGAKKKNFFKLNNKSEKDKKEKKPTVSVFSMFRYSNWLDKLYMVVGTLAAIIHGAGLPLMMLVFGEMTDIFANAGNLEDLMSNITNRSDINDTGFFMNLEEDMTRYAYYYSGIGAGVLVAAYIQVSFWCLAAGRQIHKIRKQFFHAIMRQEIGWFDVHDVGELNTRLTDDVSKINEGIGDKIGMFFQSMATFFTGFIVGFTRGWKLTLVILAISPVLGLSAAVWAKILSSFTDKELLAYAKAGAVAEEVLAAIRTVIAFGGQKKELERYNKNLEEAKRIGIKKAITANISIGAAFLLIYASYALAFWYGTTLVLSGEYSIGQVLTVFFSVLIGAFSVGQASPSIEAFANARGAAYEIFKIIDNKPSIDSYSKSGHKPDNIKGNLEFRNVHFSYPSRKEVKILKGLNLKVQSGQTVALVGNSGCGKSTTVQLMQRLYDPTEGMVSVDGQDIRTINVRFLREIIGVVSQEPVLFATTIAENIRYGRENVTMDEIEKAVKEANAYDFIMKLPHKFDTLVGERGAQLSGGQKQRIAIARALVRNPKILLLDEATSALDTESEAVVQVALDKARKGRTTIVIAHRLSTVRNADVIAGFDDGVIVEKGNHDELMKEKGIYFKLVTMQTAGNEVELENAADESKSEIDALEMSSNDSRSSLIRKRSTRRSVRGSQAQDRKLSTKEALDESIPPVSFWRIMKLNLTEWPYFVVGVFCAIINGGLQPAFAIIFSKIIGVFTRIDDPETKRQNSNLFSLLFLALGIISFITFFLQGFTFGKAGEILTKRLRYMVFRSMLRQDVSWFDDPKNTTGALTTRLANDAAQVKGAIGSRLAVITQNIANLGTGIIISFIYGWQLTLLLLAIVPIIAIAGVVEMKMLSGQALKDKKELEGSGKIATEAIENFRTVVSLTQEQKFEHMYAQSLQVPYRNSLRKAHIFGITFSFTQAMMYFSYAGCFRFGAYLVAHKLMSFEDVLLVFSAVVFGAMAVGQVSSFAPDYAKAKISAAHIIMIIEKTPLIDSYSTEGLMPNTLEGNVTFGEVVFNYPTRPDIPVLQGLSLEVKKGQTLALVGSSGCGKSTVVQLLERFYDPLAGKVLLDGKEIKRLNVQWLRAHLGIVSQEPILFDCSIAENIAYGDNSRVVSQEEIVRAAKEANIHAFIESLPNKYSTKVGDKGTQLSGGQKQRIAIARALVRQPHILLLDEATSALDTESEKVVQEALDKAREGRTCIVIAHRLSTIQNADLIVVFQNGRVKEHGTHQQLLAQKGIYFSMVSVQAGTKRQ
Experimental: (§1) Efflux assay was performed according to manufacturer's protocol (Millipore Sigma #ECM910). Cells were resuspended in cold efflux buffer and incubated with Rhodamine 123 for 1 hour on ice. Cells were centrifuged and treated in warm efflux buffer with DMSO or drug for 30-60 minutes, washed with cold PBS, and effluxed dye was quantified with a plate reader at an excitation wavelength of 485 nm and an emission wavelength of 530 nm.

BRD4 (BET proteins) = target: T2, BRD4 (BET proteins) (Homo sapiens, UniProt O60885); assay: Western blot of BET protein/BRD4 degradation in DLD-1 cells; type: cell-based; conditions: 4 hours; for dBET6-mediated degradation of BRD4 on combined treatment: increasing doses of dBET6 plus the compound at 2 μM
T2 construct: endogenous in cells; host or cells: DLD-1
Experimental: (§2) Samples were harvested in MIB lysis buffer (50 mM HEPES (pH 7.5), 0.5% Triton X-100, 150 mM NaCl, 1 mM EDTA, 1 mM EGTA, 10 mM sodium fluoride, 2.5 mM sodium orthovanadate, 1× protease inhibitor cocktail (Roche), and 1% each of phosphatase inhibitor cocktails 2 and 3 (Sigma)). Particulate was removed by centrifugation of lysates at 21,000 rpm for 15 minutes at 4° C. Lysates were subjected to SDS-PAGE chromatography and transferred to PVDF membranes before western blotting with primary antibodies. […] Secondary HRP-anti-rabbit and HRP-anti-mouse were obtained from ThermoFisher Scientific. SuperSignal West Pico and Femto Chemiluminescent Substrates (Thermo) were used to visualize blots.

MEK1/2 [2] = assay: Western blot of MEK1/2 degrader target in DLD-1 cells; type: cell-based; conditions: 1 μM, 24 hours
MEK1/2 [3] = assay: Western blot of MEK1/2 degradation and ERK1/2 phosphorylation in LS513 cells; type: cell-based; conditions: LS513 (MDR1-overexpressing) vs SKCO1; escalating doses, 4 hours
Experimental: as §2

[4] = test system: K-ras mutant CRC cell lines (LS1034, LS513, SW948, SW1463, SKCO1, NCIH747, SW620); assay: Cell viability (CellTiter-Glo) and colony formation of K-ras mutant CRC cell lines; conditions: escalating doses 5 days (viability); 1 μM 14 days (colony formation)
MDR1 [5] = target: T1, MDR1; assay: Rhodamine 123 efflux assay in DLD-1 cells; type: cell-based; set-up: endogenous in cells; conditions: 2 μM
Experimental: as §1

[6] = test system: BET proteins (BRD2, BRD3 or BRD4); assay: Western blot of BET protein degradation, parental vs degrader-resistant cells; type: cell-based; conditions: for degradation of BET proteins by escalating doses: 0-10 μM, 24 hours
Experimental: as §2

CDK9 [7] = target: T3, CDK9 (Homo sapiens, UniProt P50750); assay: Western blot of CDK9 degradation, A1847 parental vs Thal-R cells; type: cell-based; conditions: A1847 Thal-R vs parental; 2 μM, 4 hours
T3 sequence (P50750 whole entry): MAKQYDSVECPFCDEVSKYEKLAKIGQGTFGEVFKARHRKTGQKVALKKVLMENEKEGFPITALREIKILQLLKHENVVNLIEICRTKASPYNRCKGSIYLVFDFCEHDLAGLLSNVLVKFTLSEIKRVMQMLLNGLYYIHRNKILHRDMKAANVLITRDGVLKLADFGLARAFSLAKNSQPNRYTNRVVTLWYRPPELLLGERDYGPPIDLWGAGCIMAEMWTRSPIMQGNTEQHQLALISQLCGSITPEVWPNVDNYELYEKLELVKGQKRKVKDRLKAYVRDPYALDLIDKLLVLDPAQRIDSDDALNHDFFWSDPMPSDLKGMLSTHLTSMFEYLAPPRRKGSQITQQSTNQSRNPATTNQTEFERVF
T3 sequence (O60563 whole entry partner): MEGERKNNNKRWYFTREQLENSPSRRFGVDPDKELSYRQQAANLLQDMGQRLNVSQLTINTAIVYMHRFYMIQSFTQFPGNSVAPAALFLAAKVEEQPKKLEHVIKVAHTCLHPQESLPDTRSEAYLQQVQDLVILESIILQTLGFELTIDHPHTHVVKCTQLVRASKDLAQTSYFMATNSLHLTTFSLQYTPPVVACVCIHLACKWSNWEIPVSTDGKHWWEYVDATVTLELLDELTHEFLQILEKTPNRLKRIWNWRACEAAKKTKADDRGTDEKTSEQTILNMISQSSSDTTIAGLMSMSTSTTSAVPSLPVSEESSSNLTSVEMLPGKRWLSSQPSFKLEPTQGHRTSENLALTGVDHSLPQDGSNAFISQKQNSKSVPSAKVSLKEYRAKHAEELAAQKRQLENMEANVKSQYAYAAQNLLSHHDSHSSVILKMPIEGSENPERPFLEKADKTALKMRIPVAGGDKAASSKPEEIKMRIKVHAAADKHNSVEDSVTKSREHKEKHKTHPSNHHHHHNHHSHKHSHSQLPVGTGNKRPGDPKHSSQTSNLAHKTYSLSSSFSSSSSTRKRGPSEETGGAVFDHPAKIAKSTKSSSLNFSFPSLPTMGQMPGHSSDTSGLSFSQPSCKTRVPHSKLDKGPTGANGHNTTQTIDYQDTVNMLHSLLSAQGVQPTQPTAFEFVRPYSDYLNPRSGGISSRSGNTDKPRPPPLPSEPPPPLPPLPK
Experimental: as §2

[8] = test system: A1847 and SUM159 parental and degrader-resistant cells; assay: CellTiter-Glo cell viability, parental vs degrader-resistant cells
[9] = test system: A1847 dBET6-R or Thal-R cells; assay: Apoptosis by western blot in degrader-resistant A1847 cells; type: cell-based; conditions: 2 μM, 4 hours
Experimental: as §2

CDK9 [10] = target: T3, CDK9; assay: Western blot of CDK9 degradation in DLD-1 cells; type: cell-based; set-up: endogenous in cells; host or cells: DLD-1; conditions: DLD-1; increasing doses of Thal SNS 032 plus the compound at 2 μM, 4 hours
Experimental: as §2

[11] = test system: HCT-15, DLD-1 and CAKI-1 cells (MDR1 overexpressing); assay: CellTiter-Glo cell viability of MDR1 overexpressing vs low MDR1 cancer cell lines; conditions: HCT-15, DLD-1, CAKI-1 vs A1847, SUM159, MOLT4; escalating doses, 5 days
A1847 or SUM159 cells = assay: Colony formation assay (14 days, crystal violet); conditions: SUM159 cells expressing Flag-MDR1, MZ1 0.1 μM, with or without tariquidar 0.1 μM
MDR1 (ABCB1) = assay: Single-run proteomics (LC-MS/MS, label-free quantitation) of degrader-resistant cells; type: cell-based, human
Experimental: To determine changes in cells chronically exposed to BET or CDK9 PROTACs, we performed single-run proteome analysis as previously described (Lai et al., Front. Oncol., 2020, 10, 2336). Briefly, WT or PROTAC-R cells were lysed in 50 mM HEPES pH 8.0+4% SDS, and 100 μg of proteins were digested using LysC and trypsin. Digested peptides were isolated using C-18 and PGC columns, then dried and cleaned with ethyl acetate. Three […] peptides were analyzed using LC-MS/MS. MaxQuant normalized LFQ values were imported into Perseus software (1.6.2.3) and filtered in the following manner: kinases identified by site only were removed, reverse, or potential contaminant were removed then filtered for kinases identified by >1 unique peptide. Protein LFQ values were log 2 transformed, filtered for a minimum valid number of 3, normalized using Z-scores, annotated, and subjected to a Student's t-test with comparing […]. […]
Proteolytic peptides were resuspended in 0.1% formic acid and separated with a Thermo Scientific RSLC nano Ultimate 3000 LC on a Thermo Scientific Easy-Spray C18 PepMap 75 μm×50 cm C-18 2 μm column. […] Eluted peptides were analyzed by Thermo Scientific Q Exactive or Q Exactive plus mass spectrometers utilizing a top 15 methodology in which the 15 most intense peptide precursor ions were subjected to fragmentation. […]
Raw data analysis of LFQ experiments was performed using MaxQuant software 1.6.1.0 and searched using Andromeda 1.5.6.0 against the Swiss-Prot human protein database (downloaded on Apr. 24, 2019, 20402 entries). […] LFQ quantitation was performed using MaxQuant with the following parameters; LFQ minimum ratio count: Global parameters for protein quantitation were as follows: label minimum ratio count: 1, peptides used for quantitation: unique, only use modified proteins selected and with normalized average ratio estimation selected. Match between runs was employed for LFQ quantitation and the significance threshold of the ion score was calculated based on a false discovery rate of <1%.

[12] = test system: OVCAR3, HCT116, and MOLT4 cells; assay: CellTiter-Glo cell viability, parental vs MZ1 chronically exposed cells; conditions: 5 days
ABCB1 (MDR1) = assay: ABCB1 expression and MDR1 protein by qRT-PCR and immunoblot after chronic MZ1 exposure; type: cell-based
Experimental: GeneJET RNA purification kit (Thermo Scientific) was used to isolate RNA from cells according to manufacturer's instructions. qRT-PCR on diluted cDNA was performed with inventoried TaqMan® Gene Expression Assays on the Applied Biosystems 7500 Fast Real-Time PCR System. The TaqMan Gene Expression Assay probes (ThermoFisher Scientific) used to assess changes in gene expression include ABCB1 (Assay ID: Hsxxxx), and ACTB (control) (Assay ID: Hsxxxx).

[13] = A1847 parental vs chronically exposed cells, escalating doses, 5 days

SMILES: COc1ccc(-c2ccc3c(N4CCOCC4)nc(N4C[C@@H](C)O[C@@H](C)C4)nc3n2)cc1CO [KU-0063794]
colony formation, single agent (DLD-1 cells; 2 μM, 14 days): completely repressed colony formation
colony formation on co-treatment with dBET6 (DLD-1 cells): did not improve growth inhibition
MDR1 drug efflux activity (Rhodamine 123 efflux) (MDR1 [1]; A1847 Thal-R cells): does not reduce MDR1 drug efflux activity
dBET6-mediated degradation of BRD4 on combined treatment (BRD4 (BET proteins)): failed to improve degradation of BRD4

SMILES: Cc1ncsc1-c1ccc([C@H](C)NC(=O)[C@@H]2C[C@@H](O)CN2C(=O)[C@@H](NC(=O)CCCCCCCCCCNCCCONC(=O)c2ccc(F)c(F)c2Nc2ccc(I)cc2F)C(C)(C)C)cc1 [MS432]
protein reduction on co-treatment with tariquidar (MEK1/2 [2]): improved the protein reduction relative to single agent therapies
MEK1 or MEK2 protein levels, ERK1/2 phosphorylation, apoptosis (MEK1/2 [3]): did not reduce MEKI or MEK2 protein levels, inhibit ERK1/2 phosphorylation or induce apoptosis
resistance of MDR1 overexpressing vs MDR1 low expressing CRC cell lines [4]: more resistant

reduction in concentrations of dBET6 required to degrade BRD4 when combined (BRD4 (BET proteins); combined with the compound at 2 μM): 100 fold
degradation of CDK9 by Thal SNS 032 on combined treatment (CDK9 [10]): improving degradation of CDK9
SMILES: CO[C@H]1C[C@@H]2CC[C@@H](C)[C@@](O)(O2)C(=O)C(=O)N2CCCC[C@H]2C(=O)O[C@H]([C@H](C)C[C@@H]2CC[C@@H](OCCO)[C@H](OC)C2)CC(=O)[C@H](C)/C=C(\C)[C@@H](O)[C@@H](OC)C(=O)[C@H](C)C[C@H](C)/C=C/C=C/C=C/1C [RAD001, Everolimus]
MDR1 drug efflux activity (Rhodamine 123 efflux) (MDR1 [5]): reduced MDR1 drug efflux activity similar to tariquidar-treatment
degradation of BET proteins in degrader-resistant cell lines ([6]; A1847 dBET6-R or MZ1-R vs parental, 2 μM, 4 hours): resulted in degradation of BET proteins
growth inhibition of colonies on combination with Thal SNS 032 (DLD-1 cells; compound at 2 μM, 14 days): enhancing growth inhibition of colonies
colony formation on co-treatment with dBET6 (DLD-1 cells): exhibits drug synergy
MDR1 drug efflux activity (Rhodamine 123 efflux) (MDR1 [1]; A1847 dBET6-R or Thal-R cell lines): reduced MDR1 drug efflux activity similar to that observed with tariquidar
degradation of CDK9 in degrader-resistant cell lines (CDK9 [7]): resulted in degradation of BET proteins (FIG. 5, Panel G; FIG. 12, Panels E and F) or CDK9
dBET6-mediated degradation of BRD4 on combined treatment (BRD4 (BET proteins)): improved dBET6-mediated degradation of BRD4
sensitivity of degrader-resistant cells vs parental cells (cell viability) ([8]; increasing concentrations, A1847 dBET6-R, Thal-R, MZ1-R and SUM159 MZ1-R): more sensitive
apoptosis in degrader-resistant cell lines [9]: resulted in apoptosis similar to tariquidar treatment

SMILES: Cc1sc2c(c1C)C(c1ccc(Cl)cc1)=N[C@@H](CC(=O)NCCCCCCCCNC(=O)COc1cccc3c1C(=O)N(C1CCC(=O)NC1=O)C3=O)c1nnc(C)n1-2 (some centres unmarked) [dBET6]
cell viability of MDR1 overexpressing cells [11]: did not reduce cell viability to the extent of cancer cell lines expressing low or no detectable MDR1 protein
acquired resistance (cell viability dose-response) [8, 13]: acquire resistance

SMILES: Cc1ncsc1-c1ccc(CNC(=O)[C@@H]2C[C@@H](O)CN2C(=O)[C@@H](NC(=O)COCCOCCOCCNC(=O)C[C@@H]2N=C(c3ccc(Cl)cc3)c3c(sc(C)c3C)-n3c(C)nnc32)C(C)(C)C)cc1 [MZ1]
colony formation with forced expression of Flag-MDR1 (A1847 or SUM159 cells): rescued colony formation growth
cell viability of MDR1 overexpressing cells [11]: did not reduce cell viability to the extent of cancer cell lines expressing low or no detectable MDR1 protein
MDR1 protein levels upregulated relative to parental cell lines by LFQ analysis (MDR1 (ABCB1); A1847 cells chronically exposed to the degrader (degrader-R) vs parental): 5-5 fold
MDR1 protein increase compared to parental cells (proteomics) (MDR1 (ABCB1); SUM159 MZ1-R cells vs parental): ~4.5 fold
sensitivity after chronic exposure (cell viability) ([12]; MOLT4 parental or MZ1-R cells): retain sensitivity
acquired resistance (cell viability) ([12]; OVCAR3 and HCT116, chronic exposure): acquired resistance
degradation of BET proteins by escalating doses ([6]; A1847 parental vs chronically exposed cells): less effective at inducing degradation of BET proteins
degradation of BET proteins by escalating doses ([6]; SUM159 parental vs MZ1-R cells): less effective at inducing degradation of BET proteins
ABCB1 expression after chronic exposure (ABCB1 (MDR1); MOLT4 cells): do not induce ABCB1 expression
MDR1 mRNA and protein levels after chronic exposure (ABCB1 (MDR1); OVCAR3 and HCT116 MZ1-R cells): elevated MDR1 mRNA and protein levels
acquired resistance (cell viability dose-response) [8, 13]: acquire resistance
acquired resistance (cell viability dose-response) ([8]; SUM159 parental vs chronically exposed (MZ1-R) cells, 5 days): resulted in degrader-resistance

SMILES: Cc1sc2c(c1C)C(c1ccc(Cl)cc1)=N[C@@H](CC(=O)OC(C)(C)C)c1nnc(C)n1-2 [JQ1]
sensitization to tariquidar after chronic exposure ([8]; A1847 JQ1-R vs parental and dBET6-R cells): did not cause sensitization to tariquidar

SMILES: CC(=O)O[C@H]1C(=O)[C@@]2(C)[C@H]([C@H](OC(=O)c3ccccc3)[C@]3(O)C[C@H](OC(=O)[C@H](O)[C@@H](NC(=O)c4ccccc4)c4ccccc4)C(C)=C1C3(C)C)[C@]1(OC(C)=O)CO[C@@H]1C[C@@H]2O [paclitaxel]
resistance to MDR1 substrate (cell viability) ([8]; BET protein or CDK9 degrader-resistant A1847 cells vs parental, 5 days): acquired resistance

SMILES: CN(C)C/C=C/C(=O)Nc1cc2c(Nc3ccc(F)c(Cl)c3)ncnc2cc1O[C@H]1CCOC1 [afatinib]
MDR1 drug efflux activity (Rhodamine 123 efflux) (MDR1 [1]; A1847 Thal-R cells): does not reduce MDR1 drug efflux activity
